Numbers after ± are expanded uncertainties.
Details: 101.33 kPa, Liquid, Shanghai Precision & Scientific Instrument Co., LTD (DDS-307)

electrical conductivity (298.15 K) | electrical conductivity (303.15 K) | electrical conductivity (308.15 K) | electrical conductivity (313.15 K) | electrical conductivity (318.15 K) | SMILES
4.4e-05 ± 2.6e-06 S/m | 5.55e-05 ± 3.3e-06 S/m | 6.58e-05 ± 4e-06 S/m | 6.9e-05 ± 4.1e-06 S/m | 8e-05 ± 4.8e-06 S/m | CCCCO [butan-1-ol]
0.000413 ± 2.5e-05 S/m | 0.000504 ± 3e-05 S/m | 0.000584 ± 3.5e-05 S/m | 0.000644 ± 3.9e-05 S/m | 0.000711 ± 4.3e-05 S/m | CCO [ethanol]
5.2e-05 ± 3.1e-06 S/m | 7e-05 ± 4.2e-06 S/m | 7.5e-05 ± 4.5e-06 S/m | 8.08e-05 ± 4.9e-06 S/m | 8.43e-05 ± 5.1e-06 S/m | CC(C)O [propan-2-ol]
– | 0.00287 ± 0.00017 S/m | 0.00323 ± 0.00019 S/m | 0.00349 ± 0.00021 S/m | 0.00375 ± 0.00022 S/m | O [water]
